Substitutions are numbered along the chain they refer to. Entries after “also recorded” stand apart in the source; their conditions may differ. Like-named read-outs stand apart in the source and are kept apart here.
How the values were obtained:
[1] = biological target: I. scapularis octβ2R (is-octβ2R) (Ixodes scapularis, UniProt A0ACM8E5E8); test: cell-based; format: cell-based; conditions: for potency (EC50) relative to the other TDAs: order octopamine > tyramine > noradrenaline > dopamine
Procedure: (§1) The TGFα shedding assay was performed as previously described ([28]). […] The cells were transfected using lipofectamine 2000 with plasmids encoding alkaline phosphatase–tagged TGFα (AP-TGFα) (2.5 ng/mL), is-octβ2Rs (1 ng/mL), and Gαq/s (0.5 ng/mL). After 24 h, the cells were washed with phosphate-buffered saline and resuspended in Hank's balanced salt solution (HBSS) (supplemented with 5 mM HEPES [pH 7.4]). The cells (90 μL/well) were plated in a 96-well plate and incubated with 10 μL of HBSS solution containing various concentrations of compounds for 1 h at 37 °C. Following centrifugation (200 × g, 2 min), 80 μL of the supernatant was transferred to a separate 96-well plate. Subsequently, 80 µL of 2× para-nitrophenyl phosphate (pNPP) buffer (containing 10 mM pNPP in 40 mM Tris–HCl [pH 9.5], 40 mM NaCl, and 10 mM MgCl2) was added to both the supernatant and cell-containing plates. The optical density at 405 nm of both plates was measured before and after a 1 h incubation at room temperature using a microplate reader (SpectraMax iD3, Molecular Devices, San Jose, CA, United States). AP-TGFα release was calculated using the following formulas:
(§2) ΔOD405=OD450(1h)−OD405(0h)AP−TGFαinsupernatant(%)=(ΔOD405Sup/[ΔOD450Sup+ΔOD405Cell])×125AP−TGFαrelease(%)=AP−TGFαinsupernatantunderastimulatedcondition(%)−AP−TGFαinsupernatantunderavehicle−treatedcondition
(§3) where OD405 (0 h) and […] represent the OD405 before and after a 1 h incubation, respectively, and OD405Sup and OD405Cell represent the OD405 of supernatant and cell plates, respectively. For all pharmacological analyses, nonlinear regression curve fitting was performed with a 3-parameter sigmoid model (Hill coefficient = 1) using Prism 8 (GraphPad Software, La Jolla, CA, United States).

[2] = biological target: T1, is-octβ2R I62^1.43T mutant (Ixodes scapularis, UniProt A0ACM8E5E8, I41T); test: TGFα shedding assay, amitraz-resistant mutant I62^1.43T; format: cell-based; conditions: Table S4
T1 sequence (A0ACM8E5E8 1-384 I41T): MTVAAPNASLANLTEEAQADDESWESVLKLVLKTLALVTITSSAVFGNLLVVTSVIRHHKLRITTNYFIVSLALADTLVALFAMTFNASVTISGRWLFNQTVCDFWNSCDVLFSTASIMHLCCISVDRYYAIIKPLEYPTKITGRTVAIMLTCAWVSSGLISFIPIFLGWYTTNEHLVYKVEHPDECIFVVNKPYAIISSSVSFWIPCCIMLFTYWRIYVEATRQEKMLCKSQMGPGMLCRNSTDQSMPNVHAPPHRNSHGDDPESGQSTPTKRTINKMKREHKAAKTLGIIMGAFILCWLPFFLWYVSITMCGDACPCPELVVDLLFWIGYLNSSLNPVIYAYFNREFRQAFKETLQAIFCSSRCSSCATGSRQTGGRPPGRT
Procedure: as §1, §2, §3

[3] = system: is-octβ2R Y215^5.58H mutant; test: TGFα shedding assay, amitraz-resistant mutant Y215^5.58H; format: cell-based, Ixodes scapularis; conditions: versus wild type
Procedure: as §1, §2, §3

[4] = biological target: T2, is-octβ2R Y215^5.58H mutant (Ixodes scapularis, UniProt A0ACM8E5E8, Y215H); test: as above; format: cell-based
T2 sequence (A0ACM8E5E8 1-384 Y215H): T1 sequence (A0ACM8E5E8 1-384 I41T) with T41I, Y215H
Procedure: as §1, §2, §3

[5] = biological target: T3, is-octβ2R I61^1.42F mutant (Ixodes scapularis, UniProt A0ACM8E5E8, I40F); test: TGFα shedding assay, amitraz-resistant mutant I61^1.42F; format: cell-based; conditions: Table S4
T3 sequence (A0ACM8E5E8 1-384 I40F): T1 sequence (A0ACM8E5E8 1-384 I41T) with I40F, T41I
Procedure: as §1, §2, §3

[6] = biological target: T4, is-octβ2R N87^2.61S mutant (Ixodes scapularis, UniProt A0ACM8E5E8, N87S); test: TGFα shedding assay, amitraz-resistant mutant N87^2.61S; format: cell-based; conditions: Table S4
T4 sequence (A0ACM8E5E8 1-384 N87S): T1 sequence (A0ACM8E5E8 1-384 I41T) with T41I, N87S
Procedure: as §1, §2, §3

[7] = biological target: T5, is-octβ2R Y67^2.41S mutant (Ixodes scapularis, UniProt A0ACM8E5E8, Y67S); test: TGFα shedding assay, amitraz-resistant mutant Y67^2.41S; format: cell-based; conditions: Table S4
T5 sequence (A0ACM8E5E8 1-384 Y67S): T1 sequence (A0ACM8E5E8 1-384 I41T) with T41I, Y67S
Procedure: as §1, §2, §3

[8] = biological target: T6, is-octβ2R T60^1.41P mutant (Ixodes scapularis, UniProt A0ACM8E5E8); test: TGFα shedding assay, amitraz-resistant mutant T60^1.41P; format: cell-based; conditions: Table S4
T6 sequence (A0ACM8E5E8 1-384 T39P): T1 sequence (A0ACM8E5E8 1-384 I41T) with T39P, T41I
Procedure: as §1, §2, §3

[9] = Table S2, wild type, HEK293 cells, mean ± SEM, n = 3
[10] = HEK293, 1 h, Table S2, wild type, AP-TGFα release, HEK293 cells, mean ± SEM, n = 3
[11] = logEC50, Table S2, wild type, HEK293 cells, mean ± SEM, n = 3

Structure (SMILES): CNC[C@H](O)c1ccc(O)c(O)c1 [Adrenaline, adrenaline]
- EC50 [1]: 3160 nM
- Emax ([1]; HEK293, 1 h): 20 ± 2.1%

Structure (SMILES): NCCc1ccc(O)c(O)c1 [Dopamine, dopamine]
- logEC50 [1, 9]: signal observed only at 10-5 M
- potency (EC50) relative to the other TDAs ([1]; wild type): significantly weaker affinities; also recorded: lowest potency

Structure (SMILES): Cc1ccc(N)c(C)c1 [2′,4′-dimethylaniline]
- agonistic activity ([1]; wild type): no agonist activity

Structure (SMILES): Cc1ccc(NC=O)c(C)c1 [DMF, N-(2,4-dimethylphenyl)formamide]
- logEC50 [1, 9]: no activity
- agonistic activity ([1]; wild type): no agonistic activity

Structure (SMILES): NCCc1ccc(O)cc1 [Tyramine, tyramine]
- EC50 [1]: 1580 nM
- Emax ([1]; HEK293, 1 h): 25 ± 1.7%
- potency (EC50) relative to the other TDAs ([1]; wild type): weaker potency

Structure (SMILES): NC[C@H](O)c1ccc(O)c(O)c1 [Noradrenaline, noradrenaline]
- Emax [1, 10]: 32 ± 13.1%
- EC50 [1, 11]: 10000 nM
- potency (EC50) relative to the other TDAs ([1]; wild type): significantly weaker affinities

Structure (SMILES): Cc1ccc(/N=C/N(C)/C=N/c2ccc(C)cc2C)c(C)c1 [Amitraz]
- EC50 [2]: 15.8 nM
- reduction of maximal response (Emax) by the Y215^5.58H mutation [3]: ~50%
- EC50 [4]: 63.1 nM
- EC50 [5]: 63.1 nM
- EC50 [6]: 50.1 nM
- Emax ([1]; 1 h, Table S4, WT, AP-TGFα release): 17 ± 1%
- Emax [1, 10]: 26 ± 0.9%
- EC50 ([1]; LogEC50, Table S4, WT): 31.6 nM
- EC50 [1, 11]: 126 nM
- EC50 [7]: 63.1 nM
- EC50 [8]: 31.6 nM
